Test results from patent US5498632A, “Esters of acyl carnitines with long-chain aliphatic alcohols and pharmaceutical compositions containing same having antibacterial activity” (Sigma-Tau Industrie Farmaceutiche Riunite S.p.A., priority 1992, dated 1996).
Where two headings read alike, the source gives them in different places.

Assays:
Format in all cases: cell-based
[1] = system: Staphylococcus aureus (303); test: MIC in broth, Gram+ strains; settings: S. aureus (303), Mueller-Hinton broth, 37° C., 18 hours, read-out: Minimal Inhibitory Concentration (MIC)
Experimental: (§1) Evaluation of the Minimal Inhibitory Concentration (MIC) in broth of 15 new substances for Gram+ bacterial strains.
(§2) The following strains were used: Staphylococcus aureus (4); Streptococcus faecalis (8); Bacillus pumilus (1); Bacillus subtilis (1).
(§3) MICs were determined by a standard microdilution test, using serial two-fold dilutions of the substances in Mueller-Hinton broth.
(§4) The inoculum was prepared from an overnight culture in Mueller-Hinton broth matching the 0.5 Mc Farland (turbidity) standard (BRAY W. E., Clinical Laboratory Methods, 5th Ed. C. V. MOSBY, St. Louis, Mo. 1957), and was adjusted to a final concentration of 5.0×10^4 colony-forming units/ml.
(§5) Equal volumes (0.1 ml) of both bacterial suspensions and substance solutions were distributed in microtiter plates (Falcon, 96 wells, round bottom), and then placed in a humidified incubator (37° C.) for 18 hours.
(§6) The results, in terms of MIC values, resistant strain number and mean MIC values versus susceptible strains, are illustrated in Tables 1-6.

[2] = system: Staphylococcus aureus (LC1); test: MIC in broth, Gram+ strains; settings: S. aureus (LC1), Mueller-Hinton broth, 37° C., 18 hours, read-out: Minimal Inhibitory Concentration (MIC)
Experimental: as §1, §2, §3, §4, §5, §6

[3] = system: Streptococcus faecalis (518); test: MIC in broth, Gram+ strains; settings: Enterococcus faecalis; S. faecalis (518), Mueller-Hinton broth, 37° C., 18 hours; read-out: Minimal Inhibitory Concentration (MIC)
Experimental: as §1, §2, §3, §4, §5, §6

[4] = system: Streptococcus faecalis (519); test: MIC in broth, Gram+ strains; settings: Enterococcus faecalis; S. faecalis (519), Mueller-Hinton broth, 37° C., 18 hours; read-out: Minimal Inhibitory Concentration (MIC)
Experimental: as §1, §2, §3, §4, §5, §6

Gram+ bacterial strains = test: Mean MIC in broth and resistant strain number, Gram+ strains; settings: 18 h, versus susceptible strains
Experimental: as §1, §2, §3, §4, §5, §6

Escherichia coli (76 F) = test: MIC in broth, Gram- strains; settings: 18 h, E. coli (76 F), read-out: Minimal Inhibitory Concentration (MIC)
Experimental: as §3, §4, §5
(§7) Evaluation of the Minimal Inhibitory Concentration (MIC) in broth of 16 new substances for Gram- bacterial strains.
(§8) The following strains were used: Enterobacter (1), Escherichia (3), Klebsiella (3), Proteus (3); Pseudomonas (2); Salmonella (2), Serratia (1).

Klebsiella oxytoca (552) = test: MIC in broth, Gram- strains; settings: 18 h, read-out: Minimal Inhibitory Concentration (MIC)
Experimental: as §3, §4, §5, §7, §8

[5] = system: Pseudomonas aeruginosa (3 E); test: MIC in broth, Gram- strains; settings: 18 h, read-out: Minimal Inhibitory Concentration (MIC)
Experimental: as §3, §4, §5, §7, §8

[6] = system: Salmonella typhimurium (D.S.); test: MIC in broth, Gram- strains; settings: Salmonella enterica, 18 h, read-out: Minimal Inhibitory Concentration (MIC)
Experimental: as §3, §4, §5, §7, §8

Gram- bacterial strains = test: Mean MIC in broth and resistant strain number, Gram- strains; settings: 18 h, read-out: Mean MIC values
Experimental: as §3, §4, §5, §7, §8

[7] = system: Helicobacter pylori NCTC 11637; test: In vitro synergistic effect of ST 722 and Bismuth Subcitrate
Experimental: CBS from the commercially available product De-Nol® (Gist-Brocades, Netherland), i.e. ammonium and potassium double salt of colloidal bismuth citrate hydroxide, was utilized by preparing a suspension of 10 mg/ml CBS in 1N NaOH. After diluting 1:10 in Mueller-Hinton broth, 8 serial two-fold dlitutions in the same medium were made. The compound ST 722 was dissolved in Mueller-Hinton broth at a starting concentration of 100 mcg/ml, then 7 serial two-fold dilutions were carried out.
The "in vitro" anti-Helicobacter activity of both CBS and ST 722, alone and in association, was tested by utilizing the strain H. pylori NCTC 11637.
A 24-hour culture of Helicobacter in Columbia agar medium supplemented with Vitox (Oxoid) and 7% defribinated horse blood is washed with Mueller-Hinton broth.
Following densitometric evaluation (reading at 600 nm), the bacterial suspension was adjusted to a concentration of 1.0×10^9 cells/ml and 0.2-ml volumes were distributed into each well of a 96-well U-bottomed microtiter plate.
A 1-μl volume of this bacterial suspension was then distributed, by means of a Steers-type replicator apparatus, into the wells of microtiter plates containing the substances, either alone or in association. The final bacterial inoculum contained approximately 1.0×10^6 bacterial cells.
The procedure described by Garrod et al. (GARROD, L. P. and WATERWORTH, P. M., 1962. Methods of testing combined antibiotic bactericidal action and the significance of the results. J. Clin. Pathol. 15, 328-338) was utilized.
Briefly, 250-μl volumes of each test substance, either alone or admixed in all the possible combinations, were additioned to 4.5 ml of Mueller-Hinton agar containing 5% defribinated horse serum. Volumes of 0.2 ml/well of the resulting solution were distributed into the wells of a microtiter plate, then seeded with 1 μl/well of a standardized bacterial suspension, and finally incubated for 48 hours at 37° C. in a 10% CO2 atmosphere.
In order to evaluate the results obtained with combinations of antibiotics it was utilized the method (KROGSTAD, D. J. and MOELLERING, R. C., 1983. Antimicrobial combinations. In LORIAN, V., Antibiotics in Laboratory Medicine, 15, 537-549) based on the calculation of the Fractional Inhibitory Concentration Index (FIC index).
FIC index is calculated as follows: [formula] Where (A) is the MIC of substance A in the association and (MICA) is the […] of the organism to substance A alone. FICA is the fractional inhibitory concentration of substance A. (B), (MICB) and FICB are defined in the same fashion for substance B.
Based on these criteria, the effect of a combination of 2 substances is referred to as 'synergistic" when the FIC index is ≤0.5, "additive" with a FIC index=1, and "antagonist" when FIC index is >1.

[8] = system: Staphylococcus aureus (306 MR); test: MIC in broth, Gram+ strains; settings: S. aureus (306 MR), Mueller-Hinton broth, 37° C., 18 hours, read-out: Minimal Inhibitory Concentration (MIC)
Experimental: as §1, §2, §3, §4, §5, §6

[9] = system: Staphylococcus aureus (ATCC 14154); test: MIC in broth, Gram+ strains; settings: ATCC14154, S. aureus (ATCC 14154), Mueller-Hinton broth, 37° C., 18 hours, read-out: Minimal Inhibitory Concentration (MIC)
Experimental: as §1, §2, §3, §4, §5, §6

[10] = system: Bacillus pumilus (CN 607); test: MIC in broth, Gram+ strains; settings: B. pumilus (CN 607), Mueller-Hinton broth, 37° C., 18 hours, read-out: Minimal Inhibitory Concentration (MIC)
Experimental: as §1, §2, §3, §4, §5, §6

[11] = system: Bacillus subtilis (ATCC 6051); test: MIC in broth, Gram+ strains; settings: ATCC6051, B. subtilis (ATCC 6051), Mueller-Hinton broth, 37° C., 18 hours, read-out: Minimal Inhibitory Concentration (MIC)
Experimental: as §1, §2, §3, §4, §5, §6

[12] = system: Streptococcus faecalis (501); test: MIC in broth, Gram+ strains; settings: Enterococcus faecalis; S. faecalis (501), Mueller-Hinton broth, 37° C., 18 hours; read-out: Minimal Inhibitory Concentration (MIC)
Experimental: as §1, §2, §3, §4, §5, §6

[13] = system: Streptococcus faecalis (505); test: MIC in broth, Gram+ strains; settings: Enterococcus faecalis; S. faecalis (505), Mueller-Hinton broth, 37° C., 18 hours; read-out: Minimal Inhibitory Concentration (MIC)
Experimental: as §1, §2, §3, §4, §5, §6

[14] = system: Streptococcus faecalis (509); test: MIC in broth, Gram+ strains; settings: Enterococcus faecalis; S. faecalis (509), Mueller-Hinton broth, 37° C., 18 hours; read-out: Minimal Inhibitory Concentration (MIC)
Experimental: as §1, §2, §3, §4, §5, §6

[15] = system: Streptococcus faecalis (516); test: MIC in broth, Gram+ strains; settings: Enterococcus faecalis; S. faecalis (516), Mueller-Hinton broth, 37° C., 18 hours; read-out: Minimal Inhibitory Concentration (MIC)
Experimental: as §1, §2, §3, §4, §5, §6

[16] = system: Streptococcus faecalis (R 2); test: MIC in broth, Gram+ strains; settings: Enterococcus faecalis; S. faecalis (R 2), Mueller-Hinton broth, 37° C., 18 hours; read-out: Minimal Inhibitory Concentration (MIC)
Experimental: as §1, §2, §3, §4, §5, §6

[17] = system: Streptococcus faecalis (UM); test: MIC in broth, Gram+ strains; settings: Enterococcus faecalis; S. faecalis (UM), Mueller-Hinton broth, 37° C., 18 hours; read-out: Minimal Inhibitory Concentration (MIC)
Experimental: as §1, §2, §3, §4, §5, §6

[18] = system: Enterobacter aerogenes (UM); test: MIC in broth, Gram- strains; settings: Klebsiella aerogenes, 18 h, read-out: Minimal Inhibitory Concentration (MIC)
Experimental: as §3, §4, §5, §7, §8

Escherichia coli (92 F) = test: MIC in broth, Gram- strains; settings: 18 h, E. coli (92 F), read-out: Minimal Inhibitory Concentration (MIC)
Experimental: as §3, §4, §5, §7, §8

Proteus vulgaris (UM) = test: MIC in broth, Gram- strains; settings: 18 h, read-out: Minimal Inhibitory Concentration (MIC)
Experimental: as §3, §4, §5, §7, §8

[19] = Gram- strains, versus susceptible strains

Compound	MIC [1] [µg/mL]	MIC [2] [µg/mL]	MIC [3] [µg/mL]	MIC [4] [µg/mL]	MIC (Gram+ bacterial strains) [µg/mL]	MIC (Escherichia coli (76 F)) [µg/mL]	MIC (Klebsiella oxytoca (552)) [µg/mL]	MIC [5] [µg/mL]	MIC [6] [µg/mL]	MIC (Gram- bacterial strains; [19]) [µg/mL]	MIC [8] [µg/mL]	MIC [9] [µg/mL]	MIC [10] [µg/mL]	MIC [11] [µg/mL]	MIC [12] [µg/mL]	MIC [13] [µg/mL]	MIC [14] [µg/mL]	MIC [15] [µg/mL]	MIC [16] [µg/mL]	MIC [17] [µg/mL]	also measured
CCCCCCCCCCCOC(=O)CC(C[N+](C)(C)C)OC(=O)CCCCCCCCCC (stereo not drawn) [ST 982]	> 100	3.12	1.56	3.12	2.6	> 100	> 100	> 100	> 100	> 100	–	–	–	–	–	–	–	–	–	–	–
Colloidal Bismuth Subcitrate [CBS, reference compound]	–	–	–	–	–	–	–	–	–	–	–	–	–	–	–	–	–	–	–	–	FIC (fractional inhibitory concentration) ([7]; ST 722 with CBS): 0.50; MIC ([7]; substance alone, H. pylori NCTC 11637, 48 hours): 6.25 µg/mL
CCCCCCCCCCCOC(=O)CC(C[N+](C)(C)C)OC(=O)CCCCCCC (stereo not drawn) [ST 1000]	–	1.56	3.12	3.12	2.49	> 100	> 100	> 100	> 100	–	3.12	1.56	–	–	–	–	–	–	–	–	MIC (Gram- bacterial strains): > 100 µg/mL
CCCCCCCCCCCCCOC(=O)CC(C[N+](C)(C)C)OC(=O)CC(C)C (stereo not drawn) [ST 1033]	3.12	1.56	1.56	1.56	2.11	–	–	> 100	> 100	100	3.12	3.12	1.56	3.12	3.12	1.56	1.56	1.56	1.56	1.56	MIC [18]: 100 µg/mL; MIC (Escherichia coli (92 F)): > 100 µg/mL; MIC (Proteus vulgaris (UM)): > 100 µg/mL
CCCCCCCCCCCCOC(=O)CC(C[N+](C)(C)C)OC(=O)CC(C)C (stereo not drawn) [ST 1037]	3.12	3.12	1.56	1.56	2.34	–	–	> 100	> 100	62.5	3.12	3.12	1.56	3.12	3.12	3.12	1.56	1.56	1.56	1.56	MIC [18]: 25 µg/mL; MIC (Escherichia coli (92 F)): 100 µg/mL; MIC (Proteus vulgaris (UM)): > 100 µg/mL
CCCCCCCCCCCCCCCC(=O)OC(CC(=O)OCCCCCCCCCCC)C[N+](C)(C)C (stereo not drawn) [ST 983]	> 100	> 100	> 100	> 100	> 100	> 100	> 100	> 100	> 100	> 100	–	–	–	–	–	–	–	–	–	–	–
CCCCCCCCCCCCCCCCOC(=O)CC(C[N+](C)(C)C)OC(=O)CC(C)C (stereo not drawn) [ST 1001]	6.25	12.5	3.12	3.12	5.35	–	–	> 100	> 100	–	6.25	6.25	6.25	12.5	3.12	3.12	3.12	3.12	3.12	3.12	MIC [18]: > 100 µg/mL; MIC (Escherichia coli (92 F)): > 100 µg/mL; MIC (Proteus vulgaris (UM)): > 100 µg/mL; MIC (Gram- bacterial strains): > 100 µg/mL
